Results as given in PubChem BioAssay (NCI).
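Five concentrations, 48 hours, 96-well plates. The concentration for full growth arrest is given as TGI.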

Experiments:
Assay in all cases: inhibition of tumour cell growth, NCI panel, 48 h
[1] = system: A498 renal
[2] = system: A549 NSCLC
[3] = system: EKVX NSCLC
[4] = system: HCT-116 colon
[5] = system: HOP-62 NSCLC
[6] = system: HS 578T breast
[7] = system: MCF7 breast
[8] = system: OVCAR-4 ovarian
[9] = system: SK-MEL-28 melanoma
[10] = system: SK-MEL-5 melanoma
[11] = system: TK-10 renal

CC1CCC(=O)C(C(=O)CC2CC(=O)N(C)C(=O)C2)C1 (stereo not given)
TGI [1]: > 100 µM
TGI [2]: > 100 µM
TGI [3]: > 100 µM
TGI [4]: > 100 µM
TGI [5]: > 100 µM
TGI [6]: > 100 µM
TGI [7]: > 100 µM
TGI [8]: > 100 µM
TGI [9]: > 100 µM
TGI [10]: > 100 µM
TGI [11]: > 100 µM

CN(C)CCCC12CCCCC1=Nc1ccccc12 (stereo not given)
TGI [1]: > 100 µM
TGI [2]: > 100 µM
TGI [3]: > 100 µM
TGI [4]: > 100 µM
TGI [5]: > 100 µM
TGI [6]: > 100 µM
TGI [7]: > 100 µM
TGI [8]: > 100 µM
TGI [9]: > 100 µM
TGI [10]: > 100 µM
TGI [11]: > 100 µM

CC(=O)Oc1ccc2c(C)cc(=O)oc2c1OC(C)=O
TGI [1]: 76.5 µM
TGI [2]: > 100 µM
TGI [3]: > 100 µM
TGI [4]: > 100 µM
TGI [5]: > 100 µM
TGI [6]: 99.5 µM
TGI [7]: > 100 µM
TGI [8]: > 100 µM
TGI [9]: > 100 µM
TGI [10]: > 100 µM
TGI [11]: 84.9 µM

Cc1cc2oc(=N)c(C#N)c(C)c2cc1C
TGI [1]: > 100 µM
TGI [2]: > 100 µM
TGI [3]: > 100 µM
TGI [4]: > 100 µM
TGI [5]: > 100 µM
TGI [6]: > 100 µM
TGI [7]: > 100 µM
TGI [8]: > 100 µM
TGI [9]: > 100 µM
TGI [10]: > 100 µM
TGI [11]: > 100 µM

Cc1cc(S(=O)(=O)Nc2n[nH]c(N)n2)c(SCC(=O)O)cc1Cl
TGI [1]: > 10 µM
TGI [2]: > 10 µM
TGI [3]: > 10 µM
TGI [4]: > 10 µM
TGI [5]: > 10 µM
TGI [6]: > 10 µM
TGI [7]: > 10 µM
TGI [8]: > 10 µM
TGI [9]: > 10 µM
TGI [10]: > 10 µM
TGI [11]: > 10 µM

S=C(S)NCNC(=S)S.[Zn+2]
TGI [1]: > 100 µM
TGI [2]: > 100 µM
TGI [3]: > 100 µM
TGI [4]: > 100 µM
TGI [5]: > 100 µM
TGI [6]: > 100 µM
TGI [7]: > 100 µM
TGI [8]: > 100 µM
TGI [9]: > 100 µM
TGI [10]: > 100 µM
TGI [11]: > 100 µM

Oc1[nH]c2ccccc2c1N=NC(=S)Nc1cccc(Cl)c1
TGI [1]: 24.7 µM
TGI [2]: 35.6 µM
TGI [3]: > 100 µM
TGI [4]: 17.3 µM
TGI [5]: 42.5 µM
TGI [6]: > 100 µM
TGI [7]: > 100 µM
TGI [8]: 59.4 µM
TGI [9]: > 100 µM
TGI [10]: 18.8 µM
TGI [11]: 84.8 µM

CCC(C)OC(=O)/C(Br)=C1/OC(=O)c2ccccc2-c2ccccc21 (stereo not given)
TGI [1]: > 100 µM
TGI [2]: > 100 µM
TGI [3]: > 100 µM
TGI [4]: 36.6 µM
TGI [5]: 35.1 µM
TGI [6]: > 100 µM
TGI [7]: > 100 µM
TGI [8]: > 100 µM
TGI [9]: 86.7 µM
TGI [10]: 56.2 µM
TGI [11]: 43.2 µM

CCOC(=O)NC(Nc1ccc(S(=O)(=O)Nc2nc(C)cc(C)n2)cc1)(C(=O)OCC)C(F)(F)F (stereo not given)
TGI [1]: > 100 µM
TGI [2]: > 100 µM
TGI [3]: > 100 µM
TGI [4]: > 100 µM
TGI [5]: > 100 µM
TGI [6]: > 100 µM
TGI [7]: > 100 µM
TGI [8]: > 100 µM
TGI [9]: > 100 µM
TGI [10]: > 100 µM
TGI [11]: > 100 µM

C[C@H](CCC(=O)O)[C@H]1CC[C@H]2[C@@H]3CC[C@@H]4C[C@H](O)CC[C@]4(C)[C@H]3C[C@H](O)[C@]12C
TGI [1]: > 100 µM
TGI [2]: > 100 µM
TGI [3]: > 100 µM
TGI [4]: > 100 µM
TGI [5]: 78.6 µM
TGI [6]: > 100 µM
TGI [7]: > 100 µM
TGI [8]: > 100 µM
TGI [9]: > 100 µM
TGI [10]: > 100 µM
TGI [11]: > 100 µM

Fc1cc(-c2cc(-c3ccccc3)no2)c(Cl)cc1Cl
TGI [1]: > 54 µM
TGI [2]: > 41.6 µM
TGI [3]: > 51.9 µM
TGI [4]: > 31.7 µM
TGI [5]: > 54.8 µM
TGI [6]: > 88.9 µM
TGI [7]: > 100 µM
TGI [8]: > 77.3 µM
TGI [9]: > 56.4 µM
TGI [10]: > 33.5 µM
TGI [11]: > 51.7 µM

O=C1/C(=C/c2ccccc2S)N=C(c2ccccc2)N1c1nc2c(Cl)cc(Cl)cc2s1
TGI [1]: 40.7 µM
TGI [2]: 54.3 µM
TGI [3]: 36 µM
TGI [4]: 36.5 µM
TGI [5]: 47.2 µM
TGI [6]: 75.8 µM
TGI [7]: 58.1 µM
TGI [8]: 73.8 µM
TGI [9]: > 100 µM
TGI [10]: 36 µM
TGI [11]: > 100 µM

CC(=O)c1[nH]c(NCc2ccccc2)c(C(=S)Nc2ccccc2)c1N
TGI [1]: 53.7 µM
TGI [2]: 93.9 µM
TGI [3]: > 100 µM
TGI [4]: 34.1 µM
TGI [5]: 40 µM
TGI [6]: 58.9 µM
TGI [7]: 37.2 µM
TGI [8]: 79.9 µM
TGI [9]: 52 µM
TGI [10]: 34.9 µM
TGI [11]: 63.8 µM

COc1cc(C2c3cc4c(cc3OC3(OC)COC(=O)C23)OCO4)cc(OC)c1OC(C)=O (stereo not given)
TGI [1]: 97.4 µM
TGI [2]: > 100 µM
TGI [3]: > 100 µM
TGI [4]: 38.7 µM
TGI [5]: 31.7 µM
TGI [6]: > 100 µM
TGI [7]: > 36.4 µM
TGI [8]: > 100 µM
TGI [9]: > 100 µM
TGI [10]: 34.6 µM
TGI [11]: > 100 µM

O=C(/C=C/c1cc2ccccc2o1)N1CCN(c2ccccn2)CC1
TGI [1]: > 100 µM
TGI [2]: > 100 µM
TGI [3]: > 100 µM
TGI [4]: > 100 µM
TGI [5]: > 100 µM
TGI [6]: > 100 µM
TGI [7]: > 100 µM
TGI [8]: > 100 µM
TGI [9]: > 100 µM
TGI [10]: > 100 µM
TGI [11]: > 100 µM
